Counter-ions that a name gives are not always drawn.
Legend:
hCA II = molecular target: T1, hCA II (Homo sapiens, UniProt P00918); assay: stopped flow CO2 hydrase assay, CA II; format: biochemical; conditions: mean from 3 different assays, errors ±5–10%
T1 construct: made in house
Protocol: (§1) An Applied Photophysics stopped-flow instrument was used for assaying the CA catalyzed CO2 hydration activity. Phenol red (at a concentration of 0.2 mM) was used as an indicator, working at the absorbance maximum of 557 nm, with 20 mM HEPES (pH 7.5) as buffer, and 20 mM Na2SO4 (for maintaining constant the ionic strength), following the initial rates of the CA-catalyzed CO2 hydration reaction for a period of 10–100 s. The CO2 concentrations ranged from 1.7 to 17 mM for the determination of the kinetic parameters and inhibition constants. For each inhibitor, at least six traces of the initial 5–10% of the reaction were used for determining the initial velocity. The uncatalyzed rates were determined in the same manner and subtracted from the total observed rates. Stock solutions of inhibitor (0.1 mM) were prepared in distilled–deionized water, and dilutions up to 0.01 nM were done thereafter with the assay buffer. Inhibitor and enzyme solutions were preincubated together for 45 min at room temperature prior to assay in order to allow for the formation of the E–I complex. The inhibition constants were obtained by non-linear least-squares methods using PRISM 3 and the Cheng–Prusoff equation, as reported earlier, representing the mean from at least three different determinations. […] All CA isoforms were recombinant ones obtained in-house, as reported earlier.

hCA I = molecular target: T2, hCA I (Homo sapiens, UniProt P00915); assay: stopped flow CO2 hydrase assay, CA I; format: biochemical; conditions: mean from 3 different assays, errors ±5–10%
T2 construct: made in house
Protocol: as §1

hCA IV = molecular target: T3, hCA IV (Homo sapiens, UniProt P22748); assay: stopped flow CO2 hydrase assay, CA IV; format: biochemical; conditions: mean from 3 different assays, errors ±5–10%
T3 construct: made in house
Protocol: as §1

hCA IX = molecular target: T4, hCA IX (Homo sapiens, UniProt Q16790); assay: stopped flow CO2 hydrase assay, CA IX; format: biochemical; conditions: for Selectivity index (SI) CA I/CA IX / Selectivity index (SI) CA II/CA IX: ratio between KI values; for Ki: stopped flow CO2 hydrase assay, mean from 3 different assays, errors ±5–10%
T4 construct: made in house
Protocol: as §1

hCA XII = molecular target: T5, hCA XII (Homo sapiens, UniProt O43570); assay: stopped flow CO2 hydrase assay, CA XII; format: biochemical; conditions: for Selectivity index (SI) CA I/CA XII / Selectivity index (SI) CA II/CA XII: ratio between KI values; for Ki: stopped flow CO2 hydrase assay, mean from 3 different assays, errors ±5–10%
T5 construct: made in house
Protocol: as §1

[1] = Caco-2 cell viability by MTS; format: cell-based; conditions: human; Caco-2 cells, 50 μM, 2 h of exposure, MTS; data not shown
Protocol: The colorectal adenocarcinoma cell line Caco-2 was purchased from American Tissue Type Culture Collection (Manassas, VA, USA) and cultured in Dulbecco’s modified Eagle’s medium (DMEM) (Thermo Fisher Scientific, Rodano, Milan, Italy) with 20% fetal bovine serum (FBS) (Thermo Fisher Scientific, Rodano, Milan, Italy) and 100 U/mL penicillin–streptomycin (Thermo Fisher Scientific, Rodano, Milan, Italy) in 5% CO2 at 37 °C. Cell viability was determined by MTS after 2 h of exposure to the aliphatic sulfonate CAIs at 50 µM concentration, as previously described.

T2 sequence (P00915 whole entry): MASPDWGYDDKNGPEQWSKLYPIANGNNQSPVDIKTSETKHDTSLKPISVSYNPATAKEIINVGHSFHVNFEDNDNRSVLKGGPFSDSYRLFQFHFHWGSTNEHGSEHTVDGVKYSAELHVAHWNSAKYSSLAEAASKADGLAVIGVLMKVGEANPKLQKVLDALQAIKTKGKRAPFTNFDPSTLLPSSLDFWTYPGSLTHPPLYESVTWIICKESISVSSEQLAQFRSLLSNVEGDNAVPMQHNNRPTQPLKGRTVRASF
T5 sequence (O43570 25-354): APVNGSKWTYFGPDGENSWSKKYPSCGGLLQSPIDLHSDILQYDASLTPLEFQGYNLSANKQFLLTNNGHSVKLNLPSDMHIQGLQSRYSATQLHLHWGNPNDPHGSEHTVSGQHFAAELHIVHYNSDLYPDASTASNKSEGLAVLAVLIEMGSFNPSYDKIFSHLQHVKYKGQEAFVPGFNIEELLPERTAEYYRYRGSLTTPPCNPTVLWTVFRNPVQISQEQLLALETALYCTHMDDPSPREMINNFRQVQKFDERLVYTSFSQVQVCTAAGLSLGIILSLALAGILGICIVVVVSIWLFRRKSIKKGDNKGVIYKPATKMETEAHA
T3 sequence (P22748 19-312): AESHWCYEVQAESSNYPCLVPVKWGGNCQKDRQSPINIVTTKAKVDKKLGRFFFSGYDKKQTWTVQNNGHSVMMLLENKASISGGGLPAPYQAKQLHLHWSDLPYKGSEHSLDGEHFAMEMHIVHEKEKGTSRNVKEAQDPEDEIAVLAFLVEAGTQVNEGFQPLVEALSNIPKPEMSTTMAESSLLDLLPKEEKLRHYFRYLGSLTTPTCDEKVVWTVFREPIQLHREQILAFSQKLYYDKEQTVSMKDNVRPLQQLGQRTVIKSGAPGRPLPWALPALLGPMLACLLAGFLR

| Compound | Ki (hCA II) [nM] | Ki (hCA I) [nM] | Ki (hCA IV) [nM] | Selectivity index (SI) CA I/CA IX (hCA IX) | Selectivity index (SI) CA II/CA IX (hCA IX) | Ki (hCA IX) [nM] | melting point [°C] | Selectivity index (SI) CA I/CA XII (hCA XII) | Selectivity index (SI) CA II/CA XII (hCA XII) | Ki (hCA XII) [nM] | viability at 2 h, 50 µM [1] [%] |
| --- | --- | --- | --- | --- | --- | --- | --- | --- | --- | --- | --- |
| CCC(=O)Nc1cc(S(N)(=O)=O)ccc1OCc1cn(CCCS(=O)(=O)[O-])nn1.[Na+] [Compound 40, Sodium 3-(4-((2-propionamido-4-sulfamoylphenoxy)methyl)-1H-1,2,3-triazol-1-yl)propane-1-sulfonate] | 6.6 | 9160 | 322 | 167 | 0.12 | 54.8 | > 300 | 194 | 0.14 | 47.1 |  |
| NS(=O)(=O)c1ccc(CNC(=O)NCc2cn(CCCS(=O)(=O)[O-])nn2)cc1.[Na+] [Compound 35, Sodium 3-(4-((3-(4-sulfamoylbenzyl)ureido)methyl)-1H-1,2,3-triazol-1-yl)propane-1-sulfonate] | 139 | 807 | 50.2 | 11 | 1.9 | 71.8 | 295 to 297 | 49 | 8.4 | 16.4 |  |
| CCC(=O)Nc1cc(S(N)(=O)=O)ccc1OCc1cn(CCCCS(=O)(=O)O)nn1 [Compound 51] | 39.9 | 3650 | > 10000 |  |  | 236 |  |  |  | 7.3 |  |
| Sodium 3-(4-((4-sulfamoylphenoxy)methyl)-1H-1,2,3-triazol-1-yl)butane-1-sulfonate [Compound 42] | 29.5 | 96.8 | 750 | 1.6 | 0.49 | 60.2 |  | 4.1 | 1.2 | 23.1 |  |
| Sodium 3-(4-((4-(3-(4-sulfamoylphenyl)ureido)phenoxy)methyl)-1H-1,2,3-triazol-1-yl)butane-1-sulfonate [Compound 49] | 18.8 | 91.9 | 4540 |  |  | 32.2 |  |  |  | 53.2 |  |
| CC(=O)Nc1cc(S(N)(=O)=O)ccc1OCc1cn(CCCS(=O)(=O)[O-])nn1.[Na+] [Compound 39, Sodium 3-(4-((2-acetamido-4-sulfamoylphenoxy)methyl)-1H-1,2,3-triazol-1-yl)propane-1-sulfonate] | 63.4 | > 10000 | 244 | >41 | 0.26 | 242 | > 300 | >534 | 3.4 | 18.7 | > 95 |
| NS(=O)(=O)c1ccc(CCNC(=O)NCc2cn(CCCS(=O)(=O)[O-])nn2)cc1.[Na+] [Compound 36, Sodium 3-(4-((3-(4-sulfamoylphenethyl)ureido)methyl)-1H-1,2,3-triazol-1-yl)propane-1-sulfonate] | 43.1 | 76.8 | 870 | 0.3 | 0.15 | 282 | 217 to 219 | 8.8 | 4.9 | 8.7 |  |
| Sodium 3-(4-((3-(4-sulfamoylphenyl)thioureido)methyl)-1H-1,2,3-triazol-1-yl)butane-1-sulfonate [Compound 48] | 5.8 | 62.4 | 557 |  |  | 8.8 |  |  |  | 31.5 |  |
| CCC(=O)Nc1cc(S(N)(=O)=O)ccc1OCc1cn(CCCCS(=O)(=O)O)nn1 (as salt: sodium) [Compound 51] |  |  |  |  |  |  | > 300 |  |  |  |  |
| CC(=O)Nc1cc(S(N)(=O)=O)ccc1OCc1cn(CCCCS(=O)(=O)O)nn1 (as salt: sodium) [Compound 50] |  |  |  |  |  |  | > 300 |  |  |  |  |
| CC(=O)Nc1cc(S(N)(=O)=O)ccc1OCc1cn(CCCCS(=O)(=O)O)nn1 [Compound 50] | 263 | 7690 | 3560 |  | 3.2 | 82.5 |  |  | 6.5 | 40.6 |  |

More lines, main results first:

| Ki (hCA II) [nM] | Ki (hCA I) [nM] | Ki (hCA IV) [nM] | Selectivity index (SI) CA I/CA IX (hCA IX) | Selectivity index (SI) CA II/CA IX (hCA IX) | Ki (hCA IX) [nM] | melting point [°C] | Selectivity index (SI) CA I/CA XII (hCA XII) | Selectivity index (SI) CA II/CA XII (hCA XII) | Ki (hCA XII) [nM] | Compound | viability at 2 h, 50 µM [1] [%] |
| --- | --- | --- | --- | --- | --- | --- | --- | --- | --- | --- | --- |
| 0.9 | 82.7 | 38.3 | 1.8 | 0.02 | 44.4 | 290 to 293 | 1.7 | 0.02 | 47.7 | NS(=O)(=O)c1ccc(OCc2cn(CCCS(=O)(=O)[O-])nn2)cc1.[Na+] [Compound 31, Sodium 3-(4-((4-sulfamoylphenoxy)methyl)-1H-1,2,3-triazol-1-yl)propane-1-sulfonate] |  |
| 41.3 | 82.3 | 473 |  |  | 68.1 |  |  |  | 64 | Sodium 3-(4-((3-(4-sulfamoylphenethyl)ureido)methyl)-1H-1,2,3-triazol-1-yl)butane-1-sulfonate [Compound 47] |  |
|  |  |  |  |  |  | 235 to 238 |  |  |  | C#CCNC(=S)Nc1ccc(S(N)(=O)=O)cc1 [Compound 29] |  |
| 3.2 | 83.5 | 429 | 2.3 | 0.09 | 35.9 | > 300 | 12 | 0.48 | 6.7 | NS(=O)(=O)c1ccc(-c2cn(CCCS(=O)(=O)[O-])nn2)cc1.[Na+] [Compound 30, Sodium 3-(4-(4-sulfamoylphenyl)-1H-1,2,3-triazol-1-yl)propane-1-sulfonate] |  |
| 21.4 | 79.9 | 78.1 |  | 0.42 | 51.2 | 230 to 232 | 8.5 | 2.2 | 9.4 | NS(=O)(=O)c1ccc(NC(=S)NCc2cn(CCCS(=O)(=O)[O-])nn2)cc1.[Na+] [Compound 37, Sodium 3-(4-((3-(4-sulfamoylphenyl)thioureido)methyl)-1H-1,2,3-triazol-1-yl)propane-1-sulfonate] |  |
| 332 | 651 | 636 |  |  | 133 |  |  |  | 31.3 | Sodium 3-(4-((3-(4-sulfamoylbenzyl)ureido)methyl)-1H-1,2,3-triazol-1-yl)butane-1-sulfonate [Compound 46] |  |
| 22.5 | 168 | 651 | 3.3 | 0.44 | 50.7 |  | 5.2 | 0.70 | 32.2 | Sodium 3-(4-((4-sulfamoylbenzamido)methyl)-1H-1,2,3-triazol-1-yl)butane-1-sulfonate [Compound 44] |  |
| 4.2 | 460 | 43.1 | 1.0 | 0.01 | 459 | > 300 | 1.1 | 0.01 | 433 | NS(=O)(=O)c1ccc(NCc2cn(CCCS(=O)(=O)[O-])nn2)cc1.[Na+] [Compound 32, Sodium 3-(4-(((4-sulfamoylphenyl)amino)methyl)-1H-1,2,3-triazol-1-yl)propane-1-sulfonate] |  |
| 7.4 | 622 | 63.5 | 9.1 | 0.11 | 68.2 | > 300 | 9.2 | 0.11 | 67.6 | NS(=O)(=O)c1ccc(NC(=O)NCc2cn(CCCS(=O)(=O)[O-])nn2)cc1.[Na+] [Compound 34, Sodium 3-(4-((3-(4-sulfamoylphenyl)ureido)methyl)-1H-1,2,3-triazol-1-yl)propane-1-sulfonate] | > 95 |
| 41.1 | 496 | 150 | 1.3 | 0.11 | 372 |  | 14 | 1.2 | 33.6 | Sodium 3-(4-((3-(4-sulfamoylphenyl)ureido)methyl)-1H-1,2,3-triazol-1-yl)butane-1-sulfonate [Compound 45] |  |

Reference: PMC8745330, “Aromatic Sulfonamides including a Sulfonic Acid Tail: New Membrane Impermeant Carbonic Anhydrase Inhibitors for Targeting Selectively the Cancer-Associated Isoforms” (International Journal of Molecular Sciences, 2021)
